In brackets after ≈: the same amount, converted by molar mass. Activity calls are given as the source filed them. The calls are words filed in the database; no cut-off is given here.
Columns and labels:
[1] = Agonist activity at GPR119 receptor in hamster HIT-T15 cells assessed as intracellular cAMP level; type: cell-based; details: Cricetinae
[2] = test system: HIT-T15; experiment: Agonist activity at GPR119 receptor in hamster HIT-T15 cells assessed as intracellular cAMP level relative to AR-231,453; type: cell-based; details: Cricetinae
[3] = molecular target: Cytochrome P450 3A4 (Homo sapiens, UniProt P08684); experiment: Inhibition of CYP3A4 (unknown origin); type: ADME
Cytochrome P450 3A4, sequence (P08684 whole entry): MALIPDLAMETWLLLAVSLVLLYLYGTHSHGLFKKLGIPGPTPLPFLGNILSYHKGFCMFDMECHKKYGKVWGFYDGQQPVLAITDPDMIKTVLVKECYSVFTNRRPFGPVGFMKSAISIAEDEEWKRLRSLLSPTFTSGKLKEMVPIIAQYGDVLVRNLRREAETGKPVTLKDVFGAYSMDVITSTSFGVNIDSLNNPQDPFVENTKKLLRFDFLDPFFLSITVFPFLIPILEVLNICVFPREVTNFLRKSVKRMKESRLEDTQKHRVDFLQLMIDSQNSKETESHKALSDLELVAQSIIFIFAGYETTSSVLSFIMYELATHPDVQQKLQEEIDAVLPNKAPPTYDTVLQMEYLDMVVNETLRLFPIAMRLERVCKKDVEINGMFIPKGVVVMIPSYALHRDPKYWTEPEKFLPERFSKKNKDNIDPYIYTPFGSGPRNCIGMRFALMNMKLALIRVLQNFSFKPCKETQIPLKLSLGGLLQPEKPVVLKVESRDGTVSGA

[4] = molecular target: hERG (KCNH2) (Homo sapiens, UniProt Q12809); experiment: Inhibition of human ERG channel
hERG (KCNH2), sequence (Q12809 whole entry): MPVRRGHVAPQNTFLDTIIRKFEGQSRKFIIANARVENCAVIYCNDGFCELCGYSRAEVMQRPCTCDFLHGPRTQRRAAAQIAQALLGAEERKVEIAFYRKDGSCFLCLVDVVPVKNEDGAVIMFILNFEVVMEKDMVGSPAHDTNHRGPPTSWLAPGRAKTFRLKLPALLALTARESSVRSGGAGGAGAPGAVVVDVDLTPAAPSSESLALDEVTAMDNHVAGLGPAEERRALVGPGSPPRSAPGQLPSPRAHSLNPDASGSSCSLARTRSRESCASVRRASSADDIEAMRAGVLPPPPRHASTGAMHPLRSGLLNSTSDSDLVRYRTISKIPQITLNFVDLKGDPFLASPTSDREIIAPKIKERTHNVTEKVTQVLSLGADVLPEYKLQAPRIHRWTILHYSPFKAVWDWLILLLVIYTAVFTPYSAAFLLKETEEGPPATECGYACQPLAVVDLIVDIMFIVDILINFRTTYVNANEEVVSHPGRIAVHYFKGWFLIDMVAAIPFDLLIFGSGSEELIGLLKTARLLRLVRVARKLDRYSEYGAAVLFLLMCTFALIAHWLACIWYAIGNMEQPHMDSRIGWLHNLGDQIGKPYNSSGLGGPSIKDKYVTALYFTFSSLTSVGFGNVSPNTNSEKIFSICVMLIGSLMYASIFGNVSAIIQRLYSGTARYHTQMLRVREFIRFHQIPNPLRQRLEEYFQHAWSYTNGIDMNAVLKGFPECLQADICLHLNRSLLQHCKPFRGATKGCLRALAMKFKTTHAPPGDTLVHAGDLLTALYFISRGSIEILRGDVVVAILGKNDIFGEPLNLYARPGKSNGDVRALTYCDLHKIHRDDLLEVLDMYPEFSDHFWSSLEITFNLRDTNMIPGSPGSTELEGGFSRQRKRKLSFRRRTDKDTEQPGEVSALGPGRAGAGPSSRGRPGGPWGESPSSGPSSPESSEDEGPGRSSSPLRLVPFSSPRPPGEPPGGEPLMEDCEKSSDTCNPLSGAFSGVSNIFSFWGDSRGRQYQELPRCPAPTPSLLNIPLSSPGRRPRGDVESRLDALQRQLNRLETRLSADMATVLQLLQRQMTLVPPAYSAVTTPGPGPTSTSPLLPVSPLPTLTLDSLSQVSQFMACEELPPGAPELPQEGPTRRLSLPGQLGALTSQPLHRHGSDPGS

[5] = molecular target: Cytochrome P450 2C9 (Homo sapiens, UniProt P11712); experiment: Inhibition of CYP2C9 (unknown origin); type: ADME
Cytochrome P450 2C9, sequence (P11712 whole entry): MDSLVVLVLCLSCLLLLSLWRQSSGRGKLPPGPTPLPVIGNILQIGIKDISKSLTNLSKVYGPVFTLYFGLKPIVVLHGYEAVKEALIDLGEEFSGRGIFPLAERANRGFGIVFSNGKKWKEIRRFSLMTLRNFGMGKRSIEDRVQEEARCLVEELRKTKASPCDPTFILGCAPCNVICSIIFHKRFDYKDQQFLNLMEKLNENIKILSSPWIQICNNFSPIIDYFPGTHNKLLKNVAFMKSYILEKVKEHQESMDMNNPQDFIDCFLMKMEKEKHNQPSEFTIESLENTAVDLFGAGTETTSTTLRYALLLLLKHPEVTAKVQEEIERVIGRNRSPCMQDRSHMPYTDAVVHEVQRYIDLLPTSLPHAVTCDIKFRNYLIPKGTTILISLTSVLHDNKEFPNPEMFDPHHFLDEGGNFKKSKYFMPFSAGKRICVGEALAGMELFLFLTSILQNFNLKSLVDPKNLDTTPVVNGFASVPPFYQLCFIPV

[6] = Clearance in mouse liver microsomes; type: ADME, Microsome; details: read-out: CLH
[7] = Kinetic solubility of the compound at pH 6.5; type: physicochemical; details: buffer, read-out: Kinetic_solubility
[8] = Half life in mouse at 5 mg/kg, iv; type: ADME, organism-based; set-up: dose 5 mg/kg, route intravenous; details: in vivo
[9] = AUC in mouse at 5 mg/kg, iv; type: ADME, organism-based; set-up: dose 5 mg/kg, route intravenous; details: plasma
[10] = Clearance in mouse at 5 mg/kg, iv; type: ADME, organism-based; set-up: dose 5 mg/kg, route intravenous; details: in vivo
[11] = Volume of distribution in mouse at 5 mg/kg, iv; type: ADME, organism-based; set-up: dose 5 mg/kg, route intravenous; details: in vivo
[12] = AUC in mouse at 10 mg/kg, po; type: ADME, organism-based; set-up: dose 10 mg/kg, route oral; details: plasma
[13] = test system: Hepatocyte; experiment: Metabolic stability of the compound in mouse hepatocytes assessed as glutathione adduct formation; type: ADME, cell-based
[14] = test system: Mus musculus; experiment: Antihyperglycemic activity in C57Bl/6J mouse assessed as reduction of AUC (0 to 120 mins) of glucose excursion at 30 mg/kg, po administered 2 hrs before glucose challenge; type: functional; set-up: scale not given: the % may be the effect or the level left
[15] = Tmax in mouse at 10 mg/kg, po; type: ADME, organism-based; set-up: dose 10 mg/kg, route oral; details: in vivo
[16] = Cmax in mouse at 10 mg/kg, po; type: ADME, organism-based; set-up: dose 10 mg/kg, route oral; details: in vivo
[17] = Oral bioavailability in mouse at 10 mg/kg; type: ADME, organism-based; details: in vivo

| EC50 [1] [µM] | SMILES | Emax [2] [%] | other results |
| --- | --- | --- | --- |
| 0.27 | CC(C)(C)CC(=O)N1CCC(n2ncc3c(Oc4ccc(S(C)(=O)=O)cc4)ncnc32)CC1 | 58 | – |
| 5.74 | CC(C)OC(=O)N1CCC(n2ncc3c(Nc4ccc(S(C)(=O)=O)cc4)ncnc32)CC1 | 92 | – |
| 0.061 | CC(C)(C)OC(=O)N1CCC(n2ncc3c(Oc4ccccc4C#N)ncnc32)CC1 | – | – |
| > 25 | CC(C)(C)OC(=O)N1CCC(n2ncc3c(Oc4ccc(C(F)(F)F)cc4)ncnc32)CC1 | 27 | – |
| 0.57 | CS(=O)(=O)c1ccc(Oc2ncnc3c2cnn3C2CCN(Cc3ccc(Cl)cc3)CC2)cc1 | 73 | – |
| 0.036 | CS(=O)(=O)c1ccc(Oc2ncnc3c2cnn3C2CCN(Cc3ccc(C(F)(F)F)cc3)CC2)cc1 | 59 | IC50 [3]: 1.8 µM; IC20 [4]: 0.2 µM; IC50 [5]: > 6 µM; microsomal CLint [6]: 114 µL/min/mg; solubility kinetic [7]: < 1 µg/mL |
| 1 | CS(=O)(=O)c1ccc(Oc2ncnc3c2cnn3C2CCN(C(=O)CCc3ccccc3)CC2)cc1 | 94 | – |
| 0.018 | CS(=O)(=O)c1ccc(Oc2ncnc3c2cnn3C2CCN(C(=O)OCC(Cl)(Cl)Cl)CC2)cc1 | 90 | – |
| 0.16 | CC(=O)c1ccc(Oc2ncnc3c2cnn3C2CCN(C(=O)OC(C)(C)C)CC2)cc1 | 83 | – |
| 0.65 | CCOC(=O)N1CCC(n2ncc3c(Oc4ccc(S(C)(=O)=O)cc4)ncnc32)CC1 | 81 | – |
| > 25 | CC(C)(C)OC(=O)N1CCC(n2ncc3c(Oc4ccccc4)ncnc32)CC1 | 30 | – |
| 0.24 | CC(C)(C)OC(=O)N1CCC(n2ncc3c(Nc4ccc(S(C)(=O)=O)cc4F)ncnc32)CC1 | 103 | IC20 [4]: 2.6 µM; IC50 [5]: 0.9 µM; microsomal CLint [6]: 70 µL/min/mg; solubility kinetic [7]: 8 µg/mL (≈ 16.3 µM) |
| 0.19 | CC(C)(C)OC(=O)N1CCC(n2ncc3c(Oc4ccccc4F)ncnc32)CC1 | 107 | – |
| 0.11 | CC(C)COC(=O)N1CCC(n2ncc3c(Oc4ccc(S(C)(=O)=O)cc4)ncnc32)CC1 | 84 | – |
| > 25 | CC(C)(C)OC(=O)N1CCC(n2ncc3c(Oc4ccc(C(C)(C)C)cc4)ncnc32)CC1 | 13 | – |
| 0.54 | CC(C)(C)OC(=O)N1CCC(n2ncc3c(Oc4ccc(F)cc4)ncnc32)CC1 | 82 | – |

| EC50 [1] [µM] | SMILES | Emax [2] [%] | other results |
| --- | --- | --- | --- |
| 6.4 | COc1cc(OC)cc(Oc2ncnc3c2cnn3C2CCN(C(=O)OC(C)(C)C)CC2)c1 | 34 | – |
| 0.58 | CC(C)(C)OC(=O)N1CCC(n2ncc3c(Oc4ccc(C#N)cc4)ncnc32)CC1 | 87 | – |
| 0.088 | CC(C)(C)OC(=O)N1CCC(n2ncc3c(Oc4cc(F)c(F)cc4F)ncnc32)CC1 | 95 | – |
| 0.33 | CC(C)CC(=O)N1CCC(n2ncc3c(Oc4ccc(S(C)(=O)=O)cc4)ncnc32)CC1 | 59 | IC50 [3]: > 25 µM; IC20 [4]: 2.7 µM; IC50 [5]: > 25 µM; microsomal CLint [6]: 29 µL/min/mg; solubility kinetic [7]: 32 µg/mL (≈ 69.9 µM) |
| 0.53 | CC(C)(C)OC(=O)N1CCC(n2ncc3c(Nc4cc(F)c(F)cc4F)ncnc32)CC1 | 97 | – |
| 0.2 | CS(=O)(=O)c1ccc(Oc2ncnc3c2cnn3C2CCN(Cc3ccc(F)cc3)CC2)cc1 | 69 | – |
| 0.1 | CC(C)(C)COC(=O)N1CCC(n2ncc3c(Oc4ccc(S(C)(=O)=O)cc4)ncnc32)CC1 | 93 | – |
| 19 | CS(=O)(=O)c1ccc(Nc2ncnc3c2cnn3C2CCN(Cc3ccccc3)CC2)cc1 | 64 | – |
| 0.99 | CC(C)C(=O)N1CCC(n2ncc3c(Oc4ccc(S(C)(=O)=O)cc4)ncnc32)CC1 | 60 | – |
| > 25 | CC(C)(C)OC(=O)N1CCC(n2ncc3c(Oc4cccc(C(C)(C)C)c4)ncnc32)CC1 | 27 | – |
| 0.12 | CS(=O)(=O)c1ccc(Oc2ncnc3c2cnn3C2CCN(Cc3cccc(OC(F)(F)F)c3)CC2)cc1 | 54 | – |
| 0.15 | CC(C)OC(=O)N1CCC(n2ncc3c(Oc4ccc(S(C)(=O)=O)cc4)ncnc32)CC1 | 92 | half-life [8]: 1.6 h; IC50 [3]: > 6 µM; IC20 [4]: 0.5 µM; IC50 [5]: > 6 µM; AUC [9]: 25300 ng·h/mL; clearance [10]: 3.3 mL/min/kg; Vd [11]: 0.46 L/kg; AUC [12]: 41300 ng·h/mL; Stability [13]: Unstable; microsomal CLint [6]: 85 µL/min/mg; Activity [14]: 44%; Tmax [15]: 4 h; solubility kinetic [7]: < 1 µg/mL; Cmax [16]: 13.2 µM; bioavailability [17]: 82% |
| 1.4 | CC(C)(C)OC(=O)N1CCC(n2ncc3c(Nc4ccc(S(C)(=O)=O)cc4)ncnc32)CC1 | 105 | – |
| 0.043 | CC(C)(C)OC(=O)N1CCC(n2ncc3c(Oc4ccc(S(C)(=O)=O)cc4)ncnc32)CC1 | 101 | IC50 [3]: 3.1 µM; IC20 [4]: 2.7 µM; IC50 [5]: > 3 µM; microsomal CLint [6]: 86 µL/min/mg; Activity [14]: inactive; solubility kinetic [7]: < 1 µg/mL |
| 0.28 | CS(=O)(=O)c1ccc(Oc2ncnc3c2cnn3C2CCN(Cc3cccc(Cl)c3)CC2)cc1 | 83 | – |
| 0.58 | CS(=O)(=O)c1ccc(Oc2ncnc3c2cnn3C2CCN(Cc3ccccc3)CC2)cc1 | 87 | – |
